From patent publication US20170334919A1, “2-((4-AMINO-3-(3-FLUORO-5-HYDROXYPHENYL)-1H-PYRAZOLO[3,4-D]PYRIMIDIN-1 -YL)METHYL)-3-(2-(TRIFLUORO-MET HYL)BENZYL)QUINAZOLIN-4(3H)-ONE DERIVATIVES AND THEIR USE AS PHOSPHOINOSITIDE 3-KINASE INHIBITORS” (RESPIVERT LTD., priority 2013, published 2017)

Columns and labels:
[1] = tested on: neutrophils from COPD patients; test: CXCL8 release from neutrophils obtained from COPD patients; type: cell-based; conditions: Homo sapiens, Neutrophil; read-out: REC50, TNFα-induced CXCL8 in neutrophils from COPD patients
Protocol: The effects of treatment on CXCL8 release from neutrophils obtained from COPD patients were evaluated by an ELISA assay. All patients were recruited by Quintiles Limited (London, UK), and blood samples were delivered to Respivert Ltd. This study was approved by the local Ethics Committee, and all subjects gave written informed consent. Whole blood (30 mL) was mixed gently with ACD (5 mL; comprising: 7.36 g citric acid, 14.71 g sodium citrate, 9.91 g dextrose in 250 ml sterile, double distilled water) and 6% dextran (15 mL; diluted in 0.9% NaCl) to remove the red blood cells. The tubes were incubated at RT for 45 min, and the supernatant (white cell rich fraction) was then collected, leaving the red blood cells.
This fraction was centrifuged (10 min at 1200 rpm, 4° C.) with low braking. The supernatant was aspirated and the pellet was re-suspended in ice-cold, sterile double distilled H2O (10 mL), and 0.6 M KCl (4 mL) was added 30 seconds later. […]
Neutrophils were pre-incubated with test compounds or with DMSO vehicle for 1 hr and then stimulated with TNFα (10 ng/mL). Cell free supernatant was collected at 3 hr after TNFα stimulation, and CXCL8 was measured by ELISA using DuoSet ELISA development kit (R&D systems, Abingdon, UK). The IC50 values reported were determined from concentration-inhibition curves using XL-Fit (IDBS, Guildford, UK).

[2] = tested on: LPS-induced airway neutrophilia in mice; test: LPS-induced airway neutrophil accumulation in mice; type: in vivo, BALB/c mice
Protocol: Non-fasted BALB/c mice (6-8 weeks old) were dosed with vehicle or with test compound by intra-tracheal administration (dose volume 20 μL) at time points T=−2 hr, −8 hr, or −12 hr with respect to the start of LPS treatment. The LPS was prepared in a solution of 0.5 mg/mL and aerosolised using a De Vibliss ultrasonic nebuliser 2000 (7 mL during 30 min exposure). At eight hr after LPS challenge, the trachea was cannulated and bronchoalveolar lavage fluid (BALF) extracted by infusing and then withdrawing PBS (1 mL) into the lungs via the tracheal catheter. This procedure was repeated to give a yield of approximately 2 mL lavage fluid. Total cell numbers in the BALF samples were measured using a haemocytometer. Cytospin smears of the BALF samples were prepared by centrifugation at 1200 rpm for 2 min at RT and stained using a DiffQuik stain system (Dade Behring) for differential cell counts. Cells were counted using oil immersion microscopy. Data are expressed as neutrophil number of cells per mL of BALF (mean±S.E.M).

[3] = tested on: poly-I:C-induced cell accumulation in mice airways; test: Poly-I:C-induced cell accumulation in mice; type: in vivo, A/J mice
Protocol: Specific pathogen-free A/J mice (males, 5 weeks old) were dosed with poly (I:C)-LMW (1 mg/mL, 40 μL) (InvivoGen, San Diego, Calif., USA) intranasally twice daily for 3 days under anaesthasia (3% isoflurane). Test substances were dosed intra-nasally (50 μL in 10% DMSO/isotonic saline vehicle) 2 hr before each poly-I:C treatment. At 24 hr after the last poly-I:C challenge, animals were anesthetized, the trachea was cannulated and bronchial alveolar lavage (BAL) was obtained by instilling into and then withdrawing from the lungs, isotonic saline (100 mL/kg). Total cell numbers in the BALF samples were measured using a haemocytometer under a phase-contrast microscope.
The proportions of alveolar macrophages and neutrophils were determined by FACS analysis using anti-mouse MOMA2-FITC (macrophage) or anti-mouse 7/4-FITC (neutrophil). Cells were suspended in PBS and incubated with anti-MOMA2-FITC (2 μg/mL, Catalogue no SM065F, Acris Antibodies GmbH, Herford, Germany) or anti-7/4-FITC (2 μg/mL, Catalogue no CL050F, Acris Antibodies GmbH, Herford, Germany) for 30 min at 30° C., and then counterstained with propidium iodide (2 μg/mL) to allow exclusion of necrotic cells. The cells were washed with PBS, and transferred to FACS tubes. Samples was set in a flow cytometer (ALTRA II; Beckman Coulter Japan, Tokyo, Japan), and a single-parameter FL2 [PMT2] (FITC) histogram with log x-axis was plotted to illustrate relative intensity of FITC. Data files were stored for subsequent analysis using Kaluza analysis software (ver. 1.2) to calculate the proportion of each cell type.

[4] = 0.2 mg/mL intra-tracheal, pre-dose time 8 hr
[5] = 0.002 mg/mL intra-nasal + Poly I:C
[6] = 0.02 mg/mL intra-nasal + Poly I:C
[7] = 0.2 mg/mL intra-nasal + Poly I:C

COCCOCCOCC#Cc1cccc2nc(Cn3nc(-c4cc(O)cc(F)c4)c4c(N)ncnc43)n(Cc3ccccc3C(F)(F)F)c(=O)c12 [Compound (I), 2-((4-Amino-3-(3-fluoro-5-hydroxyphenyl)-1H-pyrazolo[3,4-d]pyrimidin-1-yl)methyl)-5-(3-(2-(2-methoxyethoxy)ethoxy)prop-1-yn-1-yl)-3-(2-(trifluoromethyl)benzyl)quinazolin-4(3H)-one]
EC50 [1]: 2.2 nM | Neutrophil numbers in BALF, % inhibition ([2]; 0.05 mg/mL intra-tracheal, pre-dose time 2 hr): 2.5 (19) % | Neutrophil numbers in BALF, % inhibition ([2]; 0.2 mg/mL intra-tracheal, pre-dose time 2 hr): 1.4 (53) % | Neutrophil numbers in BALF (mean ± SEM) [2, 4]: 9.4 ± 2.0 ×10^5/mL | Neutrophil numbers in BALF, % inhibition [2, 4]: 45% | Neutrophil numbers in BALF, % inhibition ([2]; 0.2 mg/mL intra-tracheal, pre-dose time 12 h): 23% | Neutrophil numbers in BALF, % inhibition ([2]; 1.0 mg/mL intra-tracheal, pre-dose time 2 hr): 68% | Cell numbers in BALF, Macrophages, % inhibition [3, 5]: 49% | Cell numbers in BALF, Neutrophils, % inhibition [3, 5]: 0.3 (43) % | Cell numbers in BALF, Macrophages, % inhibition [3, 6]: 0.3 (69) % | Cell numbers in BALF, Neutrophils, % inhibition [3, 6]: 65% | Cell numbers in BALF, Macrophages, % inhibition [3, 7]: 0.3 (79) % | Cell numbers in BALF, Neutrophils, % inhibition [3, 7]: 0.2 (77) % | potency versus compound A, poly-I:C-induced macrophage and neutrophil accumulation into BALF ([3]; direct comparison, FIG. 1): significantly greater potency than compound A
